The values that follow come from paper PMC12114846, “Interleukin-15Rα-Sushi-Fc Fusion Protein Co-Hitchhikes Interleukin-15 and Pheophorbide A for Cancer Photoimmunotherapy” (Pharmaceutics, 2025).

The target in one data set is T1, rILR-Fc (Homo sapiens, UniProt Q13261).
T1 construct: the human sushi domain (amino acids 1-77) of IL-15-Rα; His tag; made in house; host or cells: Pichia pastoris GS115
In words: Microscale thermophoresis of PhA with Cy5-labeled rILR-Fc. Format: binding. The note with it: MST, Cy5-labeled rILR-Fc 15 nM, PBS buffer. How it is done:
The dissociation constant (KD) between PhA and rILR-Fc was measured by the microscale thermophoresis (MST) technique, according to our previously reported method. Briefly, PhA was dissolved in dimethyl sulfoxide (DMSO) and subjected to a series of dilutions to prepare ligand solutions ranging from 0.4 μM to 0.098 nM. Cy5-labeled rILR-Fc was prepared at a concentration of 15 nM and incubated with the ligand solutions for 10 min. The resulting samples were then loaded into capillaries (NanoTemper Technologies, Munich, Germany) for MST analysis.
On the technique in general: Microscale thermophoresis detects binding through changes in fluorescence in a small temperature gradient.

A short description of data set [1]: Plasma pharmacokinetics of PhA after i.v. injection. In kind it is in vivo, BALB/c mice. As to conditions: 2.5 mg/kg of PhA, mice. How it is done: The free PhA formulation was prepared by dissolving PhA in 0.1% NaOH (w/v) via sonication to obtain a 4 mg/mL stock solution, followed by dilution with PBS to obtain the injection dose. An alkali solution can increase the solubility of pheophorbide A applied to photodynamic therapy. Blood samples were collected from the tail veins into heparin tubes at time points of 0.1, 0.5, 0.75, 1, 1.5, 2, 3, 4, and 5 h post-injection, respectively. PhA was extracted from plasma using a mixture of acetonitrile and methanol (1:1 v/v). The mixture was vortexed for 10 s, followed by centrifugation at 12,000 rpm for 10 min at 4 °C. The supernatant was transferred to a black 96-well plate, and the concentration of PhA was determined by the Hybrid Multi-Mode Microplate Reader (λex = 400 nm, λem = 656 nm).
(§1) Pharmacokinetic parameters including the elimination half-life (t1/2), the area under the concentration–time curve to the least measurable concentration (AUC0→n), the area under the moment curve (AUMC), the mean residence time (MRT), clearance (Cl), and the steady-state volume of distribution (Vss) were calculated using non-compartmental analysis.

The nature of data set [2]: Skin photosensitivity after xenon light. Format: in vivo, BALB/c mice. As to conditions: 2.5 mg/kg of PhA i.v., xenon light 5 mW/cm^2 for 25 min at 24 h post-injection. How it is done:
To evaluate the skin photosensitivity, healthy BALB/c mice were depilated and randomly divided into three groups. […] Mice injected with PBS were used as controls. At 24 h post-injection, all mice were exposed to a long-arc xenon lamp (5 mW/cm^2, 25 min), which is generally used in solar simulation systems, emitting a high-intensity radiant flux with a visible spectrum closely approximating that of unfiltered daylight. A 1.5 cm × 1.5 cm section of skin was collected from the dorsal areas of the mice for H&E staining.

Data set [3] deals with orthotopic CT26-Luc tumors. In words: Antitumor effect, survival and rechallenge. As to conditions: PhA-containing groups + PDT; rILR-Fc/rIL-15 without laser; 2.5 mg/kg of PhA, 0.3 mg/kg of rIL-15; n = 8; PBS group 32 days.
Method: For the laser treatment, the abdominal cavity of the mouse was opened under anesthesia; then, the tumor foci on the cecum were exposed and irradiated with a 660 nm diode laser (80 mW/cm^2) through a quartz optic fiber (0.9 mm diameter) for 10 min at 35 min post-injection. The abdominal cavity was sutured after the laser treatment. […] The tumor burden was monitored via the bioluminescence signal using an IVIS system after the i.p. injection of D-luciferin (15 mg/mL, 200 μL).
Age-matched naive male BALB/c mice were used as the controls. The tumor volume and the bioluminescence signals were recorded to assess the antitumor effects following different treatments. The death point was defined as when the tumor volume reached 2000 mm^3, calculated by the following equation:(3) Vt=L × W^2/2 where Vt is the tumor volume, L is the tumor length, and W is the tumor width.
The test system of the next data set is s.c. CT26-Luc tumors. In words: Live fluorescence imaging of PhA in s.c. tumor. Format: in vivo, BALB/c mice. As to conditions: post-injection, i.v., 2.5 mg/kg of PhA. The protocol:
The tumor models were established according to our previous method. For the subcutaneous (s.c.) tumor model, 2 × 10^6 CT26-Luc cells in 50 μL PBS were implanted into the right axillary fossae of anesthetized male BALB/c mice. Orthotopic models were established through the injection of 2 × 10^6 CT26-Luc cells (20 μL PBS) into the subserosal layer of the cecum.
Live fluorescence imaging was conducted using the IVIS system (Caliper Life Sciences, USA) (λex = 675 nm, λem = 720 nm) at serial time points (18 min, 30 min, 45 min, 1 h, 1.5 h, 2 h, 3 h, 4 h, 6 h, 17 h, and 27 h) post-injection. The fluorescence intensity in the tumor region was quantified by deducting the fluorescence intensity of the mouse tumor before the administration of nanoparticles from that at each time point post-administration. […] The plasma, heart, liver, spleen, lung, kidney, lymph node, skin, and tumor were harvested for IVIS imaging (λex = 675 nm, λem = 720 nm). The tissue uptake of PhA was presented through the semi-quantitative analysis of the fluorescence intensity.

The test system of a further data set is M-07e cells. Put plainly: Proliferation of M-07e cells (WST-1). In kind it is cell-based. As to conditions: for EC50: 72 h incubation, WST-1. How it is done: The protein of rIL-15 and rILR-Fc were analyzed by sodium dodecyl sulfate–polyacrylamide gel electrophoresis (SDS-PAGE) and a Western blot. The Western blot was performed according to our previously reported method. The primary antibody used in the Western blot was the his-tag mouse monoclonal antibody (1:5000, 66005-1-Ig, Proteintech, Wuhan, China), and the secondary antibody was horseradish peroxidase (HRP)-conjugated goat anti-mouse IgG (1:5000, 33201ES60, Yeasen, Shanghai, China). The biological activity of rIL-15 and rILR-Fc/rIL-15 was determined by their ability to stimulate the proliferation of M-07e cells.
The biological activity of the nanoparticles was determined by their ability to stimulate the proliferation of M-07e cells, as described in the Supplementary Materials. […]
gene fragment (ILR-Fc), which was then ligated into the liner pPIC9k vector. […]
Matrix-assisted laser desorption/ionization time-of-flight mass spectrometry (MALDI-TOF-MS) analysis was performed to calculate the molecular mass of rILR-Fc, with sinapic acid selected as the matrix. The released oligosaccharides were analyzed by sodium dodecyl sulfate-polyacrylamide gel electrophoresis (SDS-PAGE). […]
The biological activity of recombinant proteins or nanoparticles were determined by their ability to stimulate the proliferation of M-07e cells. […]
cells (10,000 cells/well) were plated in RPMI-1640 supplemented with 10% fetal bovine serum (FBS) in a 96-well plate and incubated with proteins (rIL-15, rILR-Fc/rIL-15, rIL-15Rα-Fc/rIL-15, rIL-15-wt, rILR-Fc/rIL-15-wt and rIL-15Rα-Fc/rIL-15-wt) at the specified concentration for 72 h at 37 °C. Cell proliferation was determined using the water-soluble tetrazolium 1 (WST-1) cell counting kit (Beyotime, Shanghai, China) following the manufacturer’s instructions. Similarity, the biological activity of nanoparticles was determined by incubated with nanoparticles at the specified concentration to stimulate the proliferation of M-07e cells. […]
Aﬃnity was measured by enzyme-linked immunosorbent assay (ELISA). […]

Data set [4] in a line: Serum pharmacokinetics of rIL-15 after i.v. injection (ELISA). As to conditions: 0.3 mg/kg of rIL-15, mice. Format: in vivo, C57BL/6 mice. How it is done: For the rIL-15 group, blood was collected from the tail veins at time points of 5, 10, 15, 20, 30, 45, 60, 75, and 90 min post-injection, respectively. For the other groups, blood was collected at time points of 5, 10, 20, 30, 60, 90, 120, 180, 240, 300, and 360 min post-injection, respectively. The concentrations of rIL-15 in mouse sera were quantified by ELISA, as described above regarding the characterization of the nanoparticles.
as §1

As usually defined, the Kd is the constant that tells how readily two partners part at equilibrium. Broadly, the MRT is a mean duration of stay, worked out from the concentration-time curve. By EC50 is commonly meant the midpoint of the concentration-response curve. A low value points to an effect from little substance.

T1 sequence (Q13261 with tags, fused parts or gaps limits assumed): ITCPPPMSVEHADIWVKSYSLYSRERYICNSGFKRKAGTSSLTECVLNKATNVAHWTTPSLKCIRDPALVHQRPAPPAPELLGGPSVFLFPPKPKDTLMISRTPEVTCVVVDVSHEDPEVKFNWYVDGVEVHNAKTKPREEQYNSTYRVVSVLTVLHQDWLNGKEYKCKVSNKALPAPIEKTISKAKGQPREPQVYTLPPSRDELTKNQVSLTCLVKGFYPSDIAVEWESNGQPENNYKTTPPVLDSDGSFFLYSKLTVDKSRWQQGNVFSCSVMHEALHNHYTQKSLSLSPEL

For the compound `C=Cc1c(C)c2cc3nc(c4c5[nH]c(cc6nc(cc1[nH]2)C(C)=C6CC)c(C)c5C(=O)[C@@H]4C(=O)OC)[C@@H](CCC(=O)O)[C@@H]3C` [PhA, pheophorbide A], binding at rILR-Fc was characterised by a dissociation constant (Kd) of 200 nM. Also, in data set [1], the “AUMC of PhA” value was 15.97 ± 4.162 μg/mL·h^2, the “Cl of PhA” value is recorded as 8.129 ± 1.527 (μg)/(μg/mL)/h and the “Vss of PhA” value is given as 18.20 ± 1.111 (μg)/(μg/mL). In data set [1] (male, BALB/c, mouse, iv), this compound yielded an MRT of 2.35 ± 0.315 h. Besides, the AUC in data set [1] (male, BALB/c, mouse, iv, read-out: AUC0→n of PhA) was 6490 ± 1010 ng·h/mL. For the same compound, the half-life in data set [1] (male, BALB/c, mouse, iv, read-out: t1/2 of PhA (converted)) is 106 ± 9.83 min. Further, the “skin after light exposure (H&E staining)” value in data set [2] is “remained unchanged after light exposure”. Moreover, the median survival time in data set [3] is 42 days. In the data set with s.c. CT26-Luc tumors, the “time of peak accumulation of PhA in the tumor” value turned out to be 1.5 h.

Turning to “rIL-15-wt: recombinant wild type IL-15 obtained from Sino biological (10360-H07E)”, in the data set with M-07e cells, the response was half-maximal at 3.26 nM (EC50).

For “rIL-15: N72D-mutated human IL-15 produced in E. coli BL21 (DE3) cells”, in the data set with M-07e cells, the EC50 is 0.92 nM. For the same compound, the “EC50 fold smaller than that of rIL-15-wt” value in the data set with M-07e cells (M-07e proliferation) was ~ 3.5 fold. Further, in data set [4], the “AUC0→n of rIL-15” value is recorded as 664.4 ± 196.1 ng/mL·min (×10), the “AUMC of rIL-15” value was 544.5 ± 73.17 ng/mL·min^2 (×10^2), the “Cl of rIL-15” value was 5.766 ± 2.519 (μg)/(ng/mL)/min (×10^−4) and the “MRT of rIL-15” value is on record as 9.913 ± 2.956 min. For the same compound, in data set [4], the “Vss of rIL-15” value is recorded as 6.351 ± 3.348 (μg)/(ng/mL) (×10^−3) and the “t1/2 of rIL-15” value is recorded as 20.24 ± 1.170 min.
